# Source: PubChem BioAssay (NCI)
#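 How tested: cells in 96-well plates exposed to compound for 48 hours at five concentrations. TGI denotes the concentration required for complete inhibition of growth.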
# Legend:
# Test in all cases: NCI anticancer screen, dose series, 48 h
# [1] = test system: SK-MEL-2 melanoma
# [2] = test system: M19-MEL melanoma
# [3] = test system: UACC-62 melanoma
# [4] = test system: 786-0 renal
# [5] = test system: SNB-78 CNS
# [6] = test system: K-562 leukemia
# [7] = test system: M14 melanoma
# [8] = test system: HCC-2998 colon
# [9] = test system: U251 CNS
# [10] = test system: NCI-H522 lung
# [11] = test system: KM12 colon
# [12] = test system: HOP-62 NSCLC
# [13] = test system: SR leukemia
# [14] = test system: SF-539 CNS
# [15] = test system: SK-MEL-28 melanoma
# [16] = test system: SN12C renal
# [17] = test system: UO-31 renal
# [18] = test system: NCI-H23 lung
# [19] = test system: LOX IMVI melanoma
# [20] = test system: TK-10 renal
# [21] = test system: MALME-3M melanoma
# [22] = test system: UACC-257 melanoma
# [23] = test system: A498 renal
# [24] = test system: HL-60(TB) leukemia
# [25] = test system: KM20L2 colon
# [26] = test system: NCI-H460 lung
# [27] = test system: OVCAR-4 ovarian
# [28] = test system: DLD-1 colon
# [29] = test system: ACHN renal
# [30] = test system: SK-OV-3 ovarian
# [31] = test system: A549 NSCLC
# [32] = test system: SNB-75 CNS
# [33] = test system: HCT-15 colon
# [34] = test system: SF-268 CNS
# [35] = test system: HOP-92 NSCLC
# [36] = test system: CCRF-CEM leukemia
# [37] = test system: MOLT-4 leukemia
# [38] = test system: SF-295 CNS
# [39] = test system: RXF-631 renal
# [40] = test system: HOP-18 NSCLC
# [41] = test system: HT29 colon
# [42] = test system: HCT-116 colon
# [43] = test system: EKVX NSCLC
# [44] = test system: OVCAR-8 ovarian
# [45] = test system: NCI-H226 lung
# [46] = test system: CAKI-1 renal
# [47] = test system: SW-620 colon
# [48] = test system: SNB-19 CNS
# [49] = test system: DMS 273 small cell lung
# [50] = test system: RXF 393 renal
# [51] = test system: COLO 205 colon
# [52] = test system: OVCAR-5 ovarian
# [53] = test system: DMS 114 small cell lung
# [54] = test system: OVCAR-3 ovarian
# [55] = test system: RPMI-8226 leukemia
# [56] = test system: IGROV1 ovarian
# [57] = test system: LXFL 529 NSCLC
# [58] = test system: SK-MEL-5 melanoma
# [59] = test system: XF 498 CNS
smiles,measurement,setting,value
NC(N)=Nc1nc2cc(N)ccc2o1,TGI,[1],> 100 µM
same,TGI,[2],> 100 µM
same,TGI,[3],> 100 µM
same,TGI,[4],> 100 µM
same,TGI,[5],> 100 µM
same,TGI,[6],> 100 µM
same,TGI,[7],> 100 µM
same,TGI,[8],> 100 µM
same,TGI,[9],> 100 µM
same,TGI,[10],> 100 µM
same,TGI,[11],> 100 µM
same,TGI,[12],> 100 µM
same,TGI,[13],> 100 µM
same,TGI,[14],> 100 µM
same,TGI,[15],> 100 µM
same,TGI,[16],> 100 µM
same,TGI,[17],> 100 µM
same,TGI,[18],> 100 µM
same,TGI,[19],> 100 µM
same,TGI,[20],> 100 µM
same,TGI,[21],> 100 µM
same,TGI,[22],> 100 µM
same,TGI,[23],> 100 µM
same,TGI,[24],> 100 µM
same,TGI,[25],> 100 µM
same,TGI,[26],> 100 µM
same,TGI,[27],> 100 µM
same,TGI,[28],> 100 µM
same,TGI,[29],> 100 µM
same,TGI,[30],> 100 µM
same,TGI,[31],> 100 µM
same,TGI,[32],> 100 µM
same,TGI,[33],> 100 µM
same,TGI,[34],> 100 µM
same,TGI,[35],> 100 µM
same,TGI,[36],> 100 µM
same,TGI,[37],> 100 µM
same,TGI,[38],> 100 µM
same,TGI,[39],> 100 µM
same,TGI,[40],> 100 µM
same,TGI,[41],> 100 µM
same,TGI,[42],> 100 µM
same,TGI,[43],> 100 µM
same,TGI,[44],> 100 µM
same,TGI,[45],> 100 µM
same,TGI,[46],> 100 µM
same,TGI,[47],> 100 µM
same,TGI,[48],> 100 µM
CC(=O)OC1CC[C@@]2(C)C(CC(OC3OC(CO)C(O)C(O)C3O)[C@]3(C)C2CCC24CC23CC[C@H]4C(C)CC(O)[C@@H](O)C(C)(C)O)C1(C)C (some centres not stated),TGI,[1],18.8 µM
same,TGI,[2],16 µM
same,TGI,[3],16.6 µM
same,TGI,[49],> 50 µM
same,TGI,[50],30.1 µM
same,TGI,[4],30.7 µM
same,TGI,[5],> 5 µM
same,TGI,[6],43.4 µM
same,TGI,[7],22.6 µM
same,TGI,[51],17.1 µM
same,TGI,[8],25.5 µM
same,TGI,[9],17.4 µM
same,TGI,[10],16.2 µM
same,TGI,[11],19.7 µM
same,TGI,[12],40.1 µM
same,TGI,[14],19.1 µM
same,TGI,[52],> 50 µM
same,TGI,[15],17.4 µM
same,TGI,[53],20.6 µM
same,TGI,[54],48.7 µM
same,TGI,[16],30.7 µM
same,TGI,[17],> 50 µM
same,TGI,[55],24.8 µM
same,TGI,[18],> 50 µM
same,TGI,[19],15.5 µM
same,TGI,[20],> 50 µM
same,TGI,[21],18.8 µM
same,TGI,[22],24.4 µM
same,TGI,[23],45.3 µM
same,TGI,[24],24.9 µM
same,TGI,[25],> 50 µM
same,TGI,[26],> 50 µM
same,TGI,[27],> 50 µM
same,TGI,[28],> 50 µM
same,TGI,[29],> 50 µM
same,TGI,[30],> 50 µM
same,TGI,[31],> 50 µM
same,TGI,[32],32 µM
same,TGI,[33],> 50 µM
same,TGI,[34],> 50 µM
same,TGI,[35],19.5 µM
same,TGI,[56],22.1 µM
same,TGI,[36],25.7 µM
same,TGI,[37],24.7 µM
same,TGI,[57],16.1 µM
same,TGI,[38],> 50 µM
same,TGI,[39],> 50 µM
same,TGI,[40],41 µM
same,TGI,[41],> 50 µM
same,TGI,[42],18.9 µM
same,TGI,[43],48.6 µM
same,TGI,[44],> 50 µM
same,TGI,[58],15.9 µM
same,TGI,[45],48.5 µM
same,TGI,[46],> 50 µM
same,TGI,[47],45.1 µM
same,TGI,[48],38.3 µM
Cc1cccc2c1NC(c1c(C)[nH]c3ccccc13)C2 (configuration not stated),TGI,[1],> 100 µM
same,TGI,[2],> 100 µM
same,TGI,[3],> 100 µM
same,TGI,[50],> 100 µM
same,TGI,[4],> 100 µM
same,TGI,[6],> 100 µM
same,TGI,[7],> 100 µM
same,TGI,[51],> 100 µM
same,TGI,[8],> 100 µM
same,TGI,[9],> 100 µM
same,TGI,[10],> 100 µM
same,TGI,[11],> 100 µM
same,TGI,[12],> 100 µM
same,TGI,[13],> 100 µM
same,TGI,[14],> 100 µM
same,TGI,[52],> 100 µM
same,TGI,[15],> 100 µM
same,TGI,[53],> 100 µM
same,TGI,[54],> 100 µM
same,TGI,[16],> 100 µM
same,TGI,[17],> 100 µM
same,TGI,[55],> 100 µM
same,TGI,[18],> 100 µM
same,TGI,[19],> 100 µM
same,TGI,[20],> 100 µM
same,TGI,[21],> 100 µM
same,TGI,[22],> 100 µM
same,TGI,[23],> 100 µM
same,TGI,[24],> 100 µM
same,TGI,[25],> 100 µM
same,TGI,[26],> 100 µM
same,TGI,[28],> 100 µM
same,TGI,[29],> 100 µM
same,TGI,[30],> 100 µM
same,TGI,[31],> 100 µM
same,TGI,[32],> 100 µM
same,TGI,[33],> 100 µM
same,TGI,[34],> 100 µM
same,TGI,[59],> 100 µM
same,TGI,[35],17.2 µM
same,TGI,[56],> 100 µM
same,TGI,[36],> 100 µM
same,TGI,[37],> 100 µM
same,TGI,[57],> 100 µM
same,TGI,[38],> 100 µM
same,TGI,[39],> 100 µM
same,TGI,[40],> 100 µM
same,TGI,[41],> 100 µM
same,TGI,[42],> 100 µM
same,TGI,[43],> 100 µM
same,TGI,[44],> 100 µM
same,TGI,[58],> 100 µM
same,TGI,[45],> 100 µM
same,TGI,[47],> 100 µM
same,TGI,[48],> 100 µM
COC(=O)CC[C@@H](NC(=O)C(C)NC(=O)COC1C(O)C(COC(=O)CCCCCCCCCCNC(=O)c2ccc([N+](=O)[O-])c3[nH]c4cc(Br)ccc4c(=O)c23)OC(OCc2ccccc2)C1NC(C)=O)C(N)=O (some centres not stated),TGI,[1],> 100 µM
same,TGI,[2],> 100 µM
same,TGI,[3],> 100 µM
same,TGI,[49],> 100 µM
same,TGI,[50],80.3 µM
same,TGI,[4],> 100 µM
same,TGI,[5],> 100 µM
same,TGI,[6],> 100 µM
same,TGI,[7],> 100 µM
same,TGI,[51],> 100 µM
same,TGI,[8],93.2 µM
same,TGI,[9],> 100 µM
same,TGI,[10],> 100 µM
same,TGI,[11],> 100 µM
same,TGI,[12],> 100 µM
same,TGI,[13],> 100 µM
same,TGI,[14],> 100 µM
same,TGI,[52],> 100 µM
same,TGI,[15],> 100 µM
same,TGI,[53],> 100 µM
same,TGI,[54],> 100 µM
same,TGI,[16],> 100 µM
same,TGI,[17],> 100 µM
same,TGI,[55],> 100 µM
same,TGI,[18],> 100 µM
same,TGI,[19],> 100 µM
same,TGI,[20],> 100 µM
same,TGI,[21],> 100 µM
same,TGI,[22],> 100 µM
same,TGI,[24],51.4 µM
same,TGI,[25],> 100 µM
same,TGI,[26],> 100 µM
same,TGI,[27],> 100 µM
same,TGI,[28],> 100 µM
same,TGI,[29],> 100 µM
same,TGI,[30],> 100 µM
same,TGI,[31],> 100 µM
same,TGI,[32],> 100 µM
same,TGI,[33],> 100 µM
same,TGI,[34],> 100 µM
same,TGI,[59],> 100 µM
same,TGI,[35],> 100 µM
same,TGI,[56],49.8 µM
same,TGI,[36],> 100 µM
same,TGI,[37],> 100 µM
same,TGI,[57],66.3 µM
same,TGI,[38],> 100 µM
same,TGI,[40],> 100 µM
same,TGI,[41],> 100 µM
same,TGI,[42],> 100 µM
same,TGI,[43],> 100 µM
same,TGI,[44],> 100 µM
same,TGI,[58],> 100 µM
same,TGI,[45],98 µM
same,TGI,[46],> 100 µM
same,TGI,[47],> 100 µM
same,TGI,[48],> 100 µM
